Earlier results in patent US20060073200A1, “Lercanidipine capsules” (Recordati Ireland Limited, priority 2004, published 2006).
Read-outs that look alike come from different tables or passages of the source.

Assays:
[1] = molecular target: cytochrome P450 IIIA4 isoenzyme (Homo sapiens, UniProt P08684); details: extensive presystemic first pass elimination
[2] = not given; remark: listed apart in the source

Chain of cytochrome P450 IIIA4 isoenzyme (P08684 whole entry): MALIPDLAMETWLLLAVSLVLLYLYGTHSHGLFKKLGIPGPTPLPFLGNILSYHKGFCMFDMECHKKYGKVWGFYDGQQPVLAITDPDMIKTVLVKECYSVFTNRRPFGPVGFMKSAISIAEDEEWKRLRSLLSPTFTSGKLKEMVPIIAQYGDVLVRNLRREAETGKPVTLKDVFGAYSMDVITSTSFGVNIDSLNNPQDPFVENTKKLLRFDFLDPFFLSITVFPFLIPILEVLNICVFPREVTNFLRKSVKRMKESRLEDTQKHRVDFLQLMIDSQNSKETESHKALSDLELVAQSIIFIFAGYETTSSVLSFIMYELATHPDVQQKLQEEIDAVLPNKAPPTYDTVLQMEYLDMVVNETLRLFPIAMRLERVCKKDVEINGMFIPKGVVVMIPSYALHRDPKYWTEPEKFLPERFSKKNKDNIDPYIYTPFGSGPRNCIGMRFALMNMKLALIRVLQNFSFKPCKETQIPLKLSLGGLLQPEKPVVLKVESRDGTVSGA

solubility (acidic media, at pH 5): less than 20 μg/ml
solubility (pH greater than 5): less than 5 μg/ml
aqueous solubility (water, lercanidipine and its salts): about 5 μg/ml
Paap (Caco-2 cell apparatus): 0.05 ×10⁻⁶ cm/s
substrate for cytochrome P450 IIIA4 isoenzyme [1]: substrate
increase in amount of lercanidipine absorbed with simultaneous intake of food ([2]; food (especially high fat content) compared to administration without food): three to four fold
plasma level of lercanidipine ([2]; immediate release dosage forms, by 24 h): below 1 ng/ml
peak plasma level (Tmax) ([2]; oral administration of an immediate release form): 1 to 3 h
SMILES: COC(=O)C1=C(C)NC(C)=C(C(=O)OC(C)(C)CN(C)CCC(c2ccccc2)c2ccccc2)C1c1cccc([N+](=O)[O-])c1 (centres unmarked) [Lercanidipine, methyl 1,1,N-trimethyl-N-(3,3-diphenylpropyl)-2-aminoethyl 1,4-dihydro-2,6-dimethyl-4-(3-nitrophenyl)pyridine-3,5-dicarboxylate]
